Laboratory results: patent publication US10654834B2 (Venenum Biodesign, LLC, priority 2016, dated 2020)

Assays:
[1] = target: T1, mouse TGR5 receptor (Mus musculus, UniProt Q80SS6); assay: Mouse TGR5 luminescent cAMP production assay (HEK293-EBNA cells, DiscoveRx cAMP XS+ kit); assay type: cell-based; conditions: HEK293-EBNA cells overexpressing mouse TGR5, luminescent cAMP assay; read-out: Mouse TGR5 Lum. cAMP Activity (EC50)
T1 construct: host or cells: HEK293-EBNA (293 c18, ATCC CRL10852)
T1 sequence (Q80SS6 1-329): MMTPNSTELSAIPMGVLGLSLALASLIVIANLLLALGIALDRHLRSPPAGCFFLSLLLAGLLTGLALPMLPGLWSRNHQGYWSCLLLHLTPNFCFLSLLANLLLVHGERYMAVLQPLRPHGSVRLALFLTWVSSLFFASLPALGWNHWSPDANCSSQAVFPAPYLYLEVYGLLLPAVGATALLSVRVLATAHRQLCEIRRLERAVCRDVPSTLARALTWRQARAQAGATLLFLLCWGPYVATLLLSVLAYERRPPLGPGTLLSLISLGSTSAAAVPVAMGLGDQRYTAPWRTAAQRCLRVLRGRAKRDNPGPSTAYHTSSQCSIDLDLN
In short: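 HEK293-EBNA cells stably expressing mouse TGR5, resuspended in serum-free DMEM with 500 μM IBMX, were premixed 20 min with cAMP antibody, then exposed to half-log compound dilutions for 1 h at room temperature. cAMP was read by luminescent enzyme-fragment complementation (cAMP XS+) after overnight incubation; EC50 derived.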

[2] = tested on: Mouse STC-1 cells; assay: STC-1 GLP-1 assay (GLP-1 secretion); assay type: cell-based; conditions: Mouse STC-1 cells, GLP-1 secretion, 2 h; read-out: Mouse STC-1 HTRF GLP-1 Activity (EC50)
Description: Compounds of the present invention were evaluated for their ability to induce GLP-1 production in mouse intestinal neuroendocrine tumor cells.
Mouse STC-1 cells were cultured and maintained in high glucose DMEM (Sigma #5796) supplemented with 15% horse serum, 5% Fetal Bovine Serum (FBS), 1%° penicillin/streptomycin, and 2 mM L-alanine L-glutamine (GlutaMax). Two days prior to analysis of GLP-1 secretion cells were harvested using Accutase (Sigma), spun down then resuspended in high glucose DMEM media containing 2 mM L-alanine L-glutamine (GlutaMax), 10% charcoal-dextran stripped FBS, and 50 μg/mL Gentamicin, at a density of 100,000° cells/mL. 100 μL of cell suspension was added to each well of a 96-well Poly-D-Lysine coated culture plate (Sigma; cat #2382493) and was incubated at 37° C. with 5% CO2.
Compounds were initially diluted in 100% DMSO (12-point serial dilution by half logs) in a 96-well plate and then were further diluted 1:500 in Hanks' Balanced Salt Solution (HBSS) containing protease inhibitor cocktail, DPP-IV inhibitor, and 0.1% fatty acid free bovine serum albumin. On the day of the experiment cells were washed once with HBSS. After wash, 100 μL of test compound was added to each well. The plate was incubated at 37° C. with 5% CO2 for 2° h. Supernatants were collected and GLP-1 secretion was measured using the Cisbio™ Active GLP-1 HTRF Assay Kit (CisBio). Briefly, Anti-GLP-1-d2 conjugate and Anti-GLP-1 Terbium Cryptate conjugate stock solutions were prepared as per kit instructions. The two solutions were pre-mixed and 10 μL were transferred to a 384-well low volume plate (Greiner; cat #784075). 10 μL of collected supernatants were added to wells already containing the conjugate solution. The plate was covered and incubated at room temperature overnight. The plate was read on an Envision™ plate reader (PerkinElmer).
In Table 53, EC50 values were obtained from the STC-1 GLP-1 production assay for compounds of the present invention are summarized.

[3] = target: T2, human TGR5 receptor (Homo sapiens, UniProt Q8TDU6); assay: Human TGR5 cAMP production assay (hTGR5-CHO cells, DiscoveRx cAMP XS+ kit); assay type: cell-based; conditions: luminescent cAMP assay, read-out: Human TGR5 Lum. cAMP Activity (EC50)
T2 construct: host or cells: CHO-K1 (hTGR5-CHO)
T2 sequence (Q8TDU6 1-330): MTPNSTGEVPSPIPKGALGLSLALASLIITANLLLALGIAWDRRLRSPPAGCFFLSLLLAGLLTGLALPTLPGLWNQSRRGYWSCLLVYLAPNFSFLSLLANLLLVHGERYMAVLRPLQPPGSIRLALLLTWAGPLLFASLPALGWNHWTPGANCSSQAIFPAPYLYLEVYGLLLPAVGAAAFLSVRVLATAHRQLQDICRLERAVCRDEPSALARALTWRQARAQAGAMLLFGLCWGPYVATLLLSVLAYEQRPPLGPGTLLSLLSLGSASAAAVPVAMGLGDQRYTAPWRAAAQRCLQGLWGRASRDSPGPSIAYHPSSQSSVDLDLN
In short: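 EC50 values come from luminescent enzyme-complementation cAMP detection, read after overnight incubation. Beforehand, hTGR5-expressing CHO-K1 cells with IBMX and anti-cAMP antibody were exposed 1 h at room temperature to serially diluted (half-log) compounds.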

[4] = 6-week DEXA body composition analysis in DIO mice; assay type: in vivo, mouse; conditions: 6 weeks BID dosing
Description: In the next series of studies (Examples 93-99), Male DIO mice were received at 12 weeks of age (from Taconic), and were single-housed at the testing facility and acclimated for at least 2 weeks. The mice were provided a high fat diet [Research Diet D12492 (60% Fat kcal)] while in the testing facility. Before the study initiation, the animals were randomized into 5 experimental groups by body weight. The vehicle group contained only 0.5% carboxymethylcellulose (medium viscosity)+0.25% Tween-80. The second group contained 10 mg/kg of the DPP-IV inhibitor Sitagliptin while the third group contained 30 mg/kg Compound 268. The fourth group contained the combination of 10 mg/kg Sitagliptin and 30 mg/kg Compound 268. The fifth group was the positive control for weight loss, Rimonabant. All mice were dosed BID at approximately 6:00 am and again at approximately 4:00 pm. The positive control rimonabant was administered at a dose of 10 mg/kg in the afternoon and the morning dosing was vehicle (no compound).
6-Week Dexa Analysis after Multiple Weeks of Dosing Compounds
Compounds of the present invention were dosed for multiple weeks and the mice were analyzed to determine whether weight loss seen in Example 93 was due to a loss in fat or lean mass.
In this example, the protocol from Example 93 was utilized. The day of experiment, the mice were anesthetized using 2.5% avertin [tert-amyl alcohol (Aldrich #15,256-3) and 2,2,2-tribromoethanol (Aldrich # T4, 840-2)]. Their body composition was assessed using the PIXImus2 X-ray unit (GE Lunar Corporation, Madison, Wis.) connected to a computer equipped with LUNAR PIXImus2 software. The head region of each mouse was excluded from the analysis. The following measurements were automatically measured or calculated by the PIXImus2 software: bone mineral density (BMD), bone mineral content (BMC), bone area (B Area), tissue area (T Area), percent fat, and total tissue mass (TTM). Fat mass, the percentage of lean mass, and lean mass, were calculated manually as follows: % Lean=100−% Fat Lean Mass=TTM×(100−% Fat) Fat Mass=TTM×% Fat

[5] = Absorption vs. first pass metabolism: Cmax in ICR mice with and without 1-aminobenzotriazole (ABT) pre-treatment; assay type: in vivo, mouse; conditions: 10 mg/kg p.o., ABT 150 mg/kg 2 h before
Description: Absorption Vs. First Pass Metabolism
In this study, we further examined the absorption as compared to first pass metabolism of the compounds of the present invention. ICR mice (Hilltop) were pre-treated with 1-aminobenzotriazole (ABT), a nonselective inhibitor of cytochrome P450 enzymes, to inhibit Cyp450-mediated degradation of the compounds in liver.
ABT was administered at 150 mg/kg in 5 mL/kg of 0.04% ethanol in 0.5% methyl cellulose (w/v) by oral gavage, 2 hours prior to test compound administration. The compounds (i.e., Compounds 56, 268, 249, 61, 126, and 199) were administered by oral gavage at 10 mg/kg in 10 mL/kg of 20% PEG400/80% (0.5% (w/v) CMC containing 0.25% (v/v) Tween 80) (v/v), 2 hours after the ABT treatment. Blood was collected via orbital bleeding at predose, 0.25, 0.5, 1, 2, and 4 hours post-dose and the quantification of compound levels in plasma was accomplished by means of LC-MS/MS analysis as described in Example 81. Reference compound “Propranolol” that is known to be metabolized by Cyp450 was used as a positive control.
FIG. 15 depicts the Cmax (nM) of the compounds of the present invention with and without ABT pre-treatment.

Row | Structure (SMILES) | EC50 [1] [nM] | EC50 [2] [nM] | EC50 [3] [nM] | fat mass versus lean mass (DEXA) [4] | loss in weight / total tissue mass (DEXA) [4] | Cmax with versus without ABT pre-treatment [5]
1 | N#Cc1ccc(CCNC(=O)[C@@H]2CCCN2c2cc(-c3ccc(CO)cc3)nc(C(F)(F)F)n2)cc1 [Compound 146, (S)-N-(4-cyanophenethyl)-1-(6-(4-(hydroxymethyl)phenyl)-2-(trifluoromethyl)pyrimidin-4-yl)pyrrolidine-2-carboxamide] | < 100 | 1000 to 30000 | < 100 | – | – | –
2 | N[C@@H](CC(=O)N1CCn2c(nnc2C(F)(F)F)C1)Cc1cc(F)c(F)cc1F [sitagliptin, Sitagliptin, reference compound] | – | – | – | due to a loss in the Fat Mass | about the same loss in weight | –
3 | O=C(NCCc1ccc(C(F)(F)F)cc1)[C@@H]1CCN1c1cc(N2CCC(CO)CC2)nc(C(F)(F)F)n1 [Compound 220, (S)-1-(6-(4-(hydroxymethyl)piperidin-1-yl)-2-(trifluoromethyl)pyrimidin-4-yl)-N-(4-(trifluoromethyl)-phenethyl)azetidine-2-carboxamide] | < 100 | < 100 | < 100 | – | – | –
4 | CS(=O)(=O)c1ccc(-c2cc(N3CCC[C@H]3C(=O)NCCc3ccc(C#N)cc3)nc(C(F)(F)F)n2)cc1 [Compound 152, (S)-N-(4-cyanophenethyl)-1-(6-(4-(methylsulfonyl)phenyl)-2-(trifluoromethyl)pyrimidin-4-yl)pyrrolidine-2-carboxamide] | < 100 | 100 to 999 | 100 to 999 | – | – | –
5 | N#Cc1ccc(CCNC(=O)[C@@H]2CCCN2c2cc(OC3CCOCC3)nc(C(F)(F)F)n2)cc1 [Compound 41, (S)-N-(4-cyanophenethyl)-1-(6-((tetrahydro-2H-pyran-4-yl)oxy)-2-(trifluoromethyl)pyrimidin-4-yl)pyrrolidine-2-carboxamide] | < 100 | 100 to 999 | < 100 | – | – | –
6 | CC(C)NCC(O)COc1cccc2ccccc12 (stereo not drawn) [propranolol, Propranolol] | – | – | – | – | – | significantly higher in ABT pre-treated mice

The next lines start with results.

Row | EC50 [1] [nM] | EC50 [2] [nM] | EC50 [3] [nM] | Structure (SMILES) | fat mass versus lean mass (DEXA) [4] | loss in weight / total tissue mass (DEXA) [4] | Cmax with versus without ABT pre-treatment [5]
7 | < 100 | 100 to 999 | < 100 | N#Cc1ccc(CCNC(=O)[C@@H]2CCCN(c3cc(N4CCC(CCO)CC4)nc(C(F)(F)F)n3)C2)cc1 [Compound 309, (R)-N-(4-cyanophenethyl)-1-(6-(4-(2-hydroxyethyl)piperidin-1-yl)-2-(trifluoromethyl)pyrimidin-4-yl)piperidine-3-carboxamide] | – | – | –
8 | < 100 | 1000 to 30000 | 100 to 999 | CN(C)CC1CCN(c2cc(N3CCC[C@H]3C(=O)NCCc3ccc(C#N)cc3)nc(C(F)(F)F)n2)CC1 [Compound 19] | – | – | –
9 | < 100 | 100 to 999 | < 100 | O=C(NCCc1ccc(C(F)(F)F)cc1)[C@@H]1CCCN1c1cc(OC2CCOCC2)nc(C(F)(F)F)n1 [Compound 40, (S)-1-(6-((tetrahydro-2H-pyran-4-yl)oxy)-2-(trifluoromethyl)pyrimidin-4-yl)-N-(4-(trifluoromethyl)phenethyl)pyrrolidine-2-carboxamide] | – | – | –
10 | < 100 | 100 to 999 | < 100 | O=C(NCCc1ccc(C(F)(F)F)cc1)[C@@H]1CCCN(c2cc(N3CCC(CO)CC3)nc(C(F)(F)F)n2)C1 [Compound 329, (R)-1-(6-(4-(hydroxymethyl)piperidin-1-yl)-2-(trifluoromethyl)pyrimidin-4-yl)-N-(4-(trifluoromethyl)-phenethyl)piperidine-3-carboxamide] | – | – | –
11 | < 100 | 100 to 999 | < 100 | O=C(NCCc1ccc(C(F)(F)F)cc1)[C@@H]1CCCN1c1cc(N2CCC(CO)CC2)nc(C(F)(F)F)n1 [Compound 2, (S)-1-(6-(4-(hydroxymethyl)piperidin-1-yl)-2-(trifluoromethyl)pyrimidin-4-yl)-N-(4-(trifluoromethyl)-phenethyl)pyrrolidine-2-carboxamide] | – | – | –
12 | 100 to 999 | 1000 to 30000 | < 100 | N#Cc1ccc(CCNC(=O)[C@@H]2CCCN2c2cc(N3CCC(CN)CC3)nc(C(F)(F)F)n2)cc1 [Compound 47, (S)-1-(6-(4-(aminomethyl)piperidin-1-yl)-2-(trifluoromethyl)pyrimidin-4-yl)-N-(4-cyanophenethyl)pyrrolidine-2-carboxamide] | – | – | –
